# Experiments:
# [1] = tested on: T1, UDP-α-D-xylose 4-epimerase (HS:15.17); conditions: read-out: KUDP-xyl (apparent); 50 mM HEPES/KOH pH 8.0, 25 °C
# T1 construct: gene HS15.17
# [2] = tested on: T2, UDP-α-D-glucuronate 6-decarboxylase (HS:15.19); experiment: anion exchange chromatography of UDP-xylose formed, […] nm; type: biochemical, Campylobacter jejuni; conditions: 50 mM phosphate pH 6.5
# T2 construct: gene HS15.19
# [3] = tested on: T3, UDP-α-D-glucose 6-dehydrogenase (HS:15.18); conditions: read-out: KNAD (apparent); 1.0 mM UDP-D-glucose, 50 mM triethanolamine pH 8.7, 25 °C
# T3 construct: gene HS15.18
structure (smiles),measurement,setting,value
"O=c1ccn([C@@H]2O[C@H](COP(=O)(O)OP(=O)(O)O[C@H]3OC[C@@H](O)[C@H](O)[C@H]3O)[C@@H](O)[C@H]2O)c(=O)[nH]1 [compound 5, UDP-α-D-xylose]",Km,[1],125 ± 13 µM
NC(=O)c1ccc[n+]([C@@H]2O[C@H](COP(=O)(O)OP(=O)(O)OC[C@H]3O[C@@H](n4cnc5c(N)ncnc54)[C@H](O)[C@@H]3O)[C@@H](O)[C@H]2O)c1 [NAD^+],"Ka (activation constant, concentration at 1⁄2 saturation)",[2]; 2.5 mM UDP-D-glucuronate,17 ± 5 µM
same,Km,[3],120 ± 10 µM
"O=C(O)[C@H]1O[C@H](OP(=O)(O)OP(=O)(O)OC[C@H]2O[C@@H](n3ccc(=O)[nH]c3=O)[C@H](O)[C@@H]2O)[C@H](O)[C@@H](O)[C@@H]1O [compound 4, UDP-α-D-glucuronate]",Km,"[2]; read-out: KUDP-glc (apparent), 0.30 mM NAD+",250 ± 30 µM

# — PMC10615251 (Biochemistry, 2023)
